Source: US20260285869A1, “COMPOUNDS, COMPOSITIONS AND METHODS THEREOF” (HEPAITECH (BEIJING) BIOPHARMA TECHNOLOGY CO., LTD., priority 2023, published 2026)

Molecular target: T1, human MRGPRX4 (Homo sapiens, UniProt Q96LA9)
T1 construct: expressed in transfected cells
Experiment: MRGPRX4 antagonist calcium assay (FLIPR, Fluo-8) in HEK293T cells stably expressing human MRGPRX4
Assay type: cell-based
Settings: antagonist mode against 0.2 μM deoxycholic acid-3-phosphoric acid; for inhibition at 0.5 µM / inhibition at 2 µM: HEK-293T, HEK293T cells expressing human MRGPRX4; for inhibition at 0.5 µM: compound at 500 nM; for IC50: top conc. 30 μM, ten 3-fold serial dilutions, class symbols; for inhibition at 2 µM: compound at 2 μM
Protocol: HEK293T cells stably expressing human MRGPRX4 were cultured in DMEM medium supplements with 10% FBS, 100 U/mL penicillin-streptomycin, 20 mM HEPES and 1 μg/mL puromycin at 37° C. with 5% (v/v) CO2. One day before test, the cells were detached using TrypLE™ Express and counted using cell counter. In a 384-well plate cells were seeded at a density of 20,000 cells/well in 20 μL/well planting medium (DMEM medium supplements with 5% FBS, 100 U/mL penicillin-streptomycin and 20 mM HEPES), and incubated overnight at 37° C. with 5% (v/v) CO2. On the day of experiments, the dye solution, prepared following the manufacture's instruction of the Screen Quest™ Fluo-8 No Wash Calcium Assay Kit, was added to each well (20 μL/well) of the cell plate. The cell plate was incubated at 25° C. for 1 hour. Test compounds in different doses were transferred to the cell plate by FLIPR and the plate was kept in the dark at 25° C. for 30 minutes. The agonist solution, 0.2 μM of deoxycholic acid-3-phosphoric acid in assay buffer, was added to each well of the plate. The plate was read for 160 sec with 1 sec interval to obtain data of antagonist mode in FLIPR. […] Those skilled in the art appreciate that IC50 of various compounds can be assessed in accordance with the present disclosure.

T1 sequence (Q96LA9 whole entry): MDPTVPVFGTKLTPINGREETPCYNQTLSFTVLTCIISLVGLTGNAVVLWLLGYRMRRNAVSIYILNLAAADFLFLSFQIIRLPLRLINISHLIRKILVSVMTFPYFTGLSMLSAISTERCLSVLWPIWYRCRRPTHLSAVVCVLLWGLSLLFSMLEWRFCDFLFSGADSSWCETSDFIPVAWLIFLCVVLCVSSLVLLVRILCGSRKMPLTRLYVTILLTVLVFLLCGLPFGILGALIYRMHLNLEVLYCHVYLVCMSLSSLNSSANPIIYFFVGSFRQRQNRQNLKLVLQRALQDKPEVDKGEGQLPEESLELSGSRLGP

Row | Compound | inhibition at 0.5 µM | IC50 | inhibition at 2 µM
1 | O=C(O)c1c(F)ccc2c1ccn2Cc1ccc(C(F)(F)F)c(Cl)c1 [Compound 1] | 78% | < 500 nM | 
2 | O=C(O)c1cccc2c1CCN2Cc1ccc(C(F)(F)F)cc1 [Compound 5] |  | > 5000 nM | 40%
3 | O=C(O)c1cccc2c1CCN2Cc1ccc(C(F)(F)F)cc1Cl [Compound 6] |  |  | 18%
4 | O=C(O)c1ncnc2c1ccn2Cc1ccc(C(F)(F)F)c(Cl)c1 [Compound 14] | 12% |  | 
5 | CC(c1ccc(C(F)(F)F)cc1)n1ccc2c(C(=O)O)cccc21 (centres unmarked) [Compound 15] | 5.3% |  | 
6 | Cc1cn(Cc2cc(C(F)(F)F)ccc2Cl)c2cccc(C(=O)O)c12 [Compound 17] |  |  | 3.6%
7 | Cc1cc2c(C(=O)O)cccc2n1Cc1cc(C(F)(F)F)ccc1Cl [Compound 18] |  |  | 7.2%
8 | Cc1cn(Cc2ccc(C(F)(F)F)cc2Cl)c2cccc(C(=O)O)c12 [Compound 20] |  | 500 to 5000 nM | 97%
9 | Cc1cc2c(C(=O)O)cccc2n1Cc1ccc(C(F)(F)F)cc1Cl [Compound 21] |  |  | 52%
10 | O=C(O)c1cccc2c1ncn2Cc1ccc(C(F)(F)F)cc1Cl [Compound 26] |  |  | 49%
11 | O=C(O)c1cccc2c1cnn2Cc1ccc(C(F)(F)F)cc1Cl [Compound 27] |  |  | 72%
12 | O=C(O)c1cccc2c1ccn2Cc1c(Cl)cc(C(F)(F)F)cc1Cl [Compound 31] |  |  | -6.2%
13 | O=C(O)c1cccc2c1ccn2Cc1c(Cl)cccc1Cl [Compound 32] |  |  | -13%
14 | O=C(O)c1cccc2c1cnn2Cc1cc(C(F)(F)F)ccc1Cl [Compound 34] |  |  | -2.4%
15 | FC(F)(F)c1ccc(Cn2ccc3c(-c4nnn[nH]4)cccc32)cc1 [Compound 41] |  |  | 81%
16 | FC(F)(F)c1ccc(Cn2ccc3c(-c4nnn[nH]4)cccc32)c(Cl)c1 [Compound 42] |  | < 500 nM | 100%
17 | Fc1cc(C(F)(F)F)ccc1Cn1ccc2c(-c3nnn[nH]3)cccc21 [Compound 43] |  | < 500 nM | 96%
18 | FC(F)(F)c1ccc(Cn2ccc3c(-c4nnn[nH]4)cccc32)c(Br)c1 [Compound 45] |  | < 500 nM | 100%
19 | FC(F)(F)c1ccc(Cn2ccc3c(-c4nnn[nH]4)cccc32)cc1Cl [Compound 46] |  | < 500 nM | 99.9%
20 | FC(F)(F)c1cccc(Cn2ccc3c(-c4nnn[nH]4)ncnc32)c1Cl [Compound 47] | 13% |  | 
21 | FC(F)(F)c1ccc(Cn2ccc3c(-c4nnn[nH]4)ncnc32)cc1Cl [Compound 48] | 4.3% |  | 
22 | Fc1ccc2c(ccn2Cc2ccc(C(F)(F)F)c(Cl)c2)c1-c1nnn[nH]1 [Compound 51] | 99.9% | < 500 nM | 

Now from value to compound:

Row | inhibition at 0.5 µM | IC50 | inhibition at 2 µM | Compound
23 | 98% | < 500 nM |  | O=C(O)c1c(F)ccc2c1ccn2Cc1cccc(C(F)(F)F)c1Cl [Compound 2]
24 |  | 500 to 5000 nM | 34% | O=C(O)c1cccc2c1ccn2Cc1ccc(C(F)(F)F)cc1 [Compound 3]
25 |  | < 500 nM | 91% | O=C(O)c1cccc2c1ccn2Cc1ccc(C(F)(F)F)cc1Cl [Compound 4]
26 | 20% |  |  | O=C(O)c1cccc2c1ccn2Cc1ccc(OC(F)(F)F)cc1 [Compound 7]
27 | 64% | < 500 nM |  | O=C(O)c1cccc2c1ccn2Cc1ccc(OC(F)(F)F)c(Cl)c1 [Compound 8]
28 | -1.6% |  |  | O=C(O)c1cccc2c1ccn2Cc1cccc(C(F)(F)F)c1 [Compound 9]
29 | 90% | < 500 nM |  | O=C(O)c1cccc2c1ccn2Cc1ccc(Cl)c(C(F)(F)F)c1 [Compound 10]
30 | -1.2% |  |  | O=C(O)c1cccc2c1ccn2Cc1ccccc1C(F)(F)F [Compound 11]
31 |  | < 500 nM | 101% | O=C(O)c1cccc2c1ccn2Cc1cccc(C(F)(F)F)c1Cl [Compound 12]
32 | 27% |  |  | O=C(O)c1ncnc2c1ccn2Cc1cccc(C(F)(F)F)c1Cl [Compound 13]
33 |  | < 500 nM | 94% | O=C(O)c1cccc2c1ccn2Cc1ccc(C(F)(F)F)cc1F [Compound 16]
34 |  | < 500 nM | 99.7% | O=C(O)c1cccc2c1ccn2Cc1ccc(C(F)(F)F)c(Cl)c1 [Compound 19, 1-(3-chloro-4-(trifluoromethyl)benzyl)-1H-indole-4-carboxylic acid]
35 |  |  | 2.4% | O=C(O)c1cccc2c1ccn2Cc1c(Cl)cccc1C(F)(F)F [Compound 22]
36 |  |  | 29% | O=C(O)c1cccc2c1ccn2Cc1cc(Cl)cc(C(F)(F)F)c1 [Compound 23]
37 | 20% |  |  | O=C(O)c1cccc2c1ccn2Cc1cccc(C(F)(F)F)c1F [Compound 24]
38 |  | > 5000 nM |  | O=C(O)c1cccc2c1ccn2CCc1ccc(C(F)(F)F)cc1Cl [Compound 25]

Row | inhibition at 0.5 µM | IC50 | inhibition at 2 µM | Compound
39 | 86% | < 500 nM |  | O=C(O)c1cc(F)cc2c1ccn2Cc1cccc(C(F)(F)F)c1Cl [Compound 28]
40 | 76% | < 500 nM |  | O=C(O)c1cc(Cl)cc2c1ccn2Cc1cccc(C(F)(F)F)c1Cl [Compound 29]
41 | 97% | < 500 nM |  | O=C(O)c1cc(Br)cc2c1ccn2Cc1cccc(C(F)(F)F)c1Cl [Compound 30]
42 |  | 500 to 5000 nM | 98% | O=C(O)c1cccc2c1ccn2Cc1ccc(C(F)(F)F)cc1Br [Compound 33]
43 |  |  | 5.1% | O=C(O)c1cccc2c1ccn2Cc1cc(C(F)(F)F)ccc1Cl [Compound 35]
44 |  |  | 0.4% | O=C(O)c1cccc2c1ccn2Cc1ccccc1Cl [Compound 36]
45 |  |  | 5.5% | O=C(O)c1cccc2c1ccn2CCc1cc(C(F)(F)F)ccc1Cl [Compound 37]
46 | 44% |  |  | O=C(O)c1cc(C2CC2)cc2c1ccn2Cc1cccc(C(F)(F)F)c1Cl [Compound 38]
47 | 1.6% |  |  | O=C(O)c1cc(-c2ccccc2)cc2c1ccn2Cc1cccc(C(F)(F)F)c1Cl [Compound 39]
48 | 4.9% |  |  | O=C(O)c1ccc(Cl)c2c1ccn2Cc1cccc(C(F)(F)F)c1Cl [Compound 40]
49 |  | 500 to 5000 nM | 65% | FC(F)(F)c1cccc(Cn2ccc3c(-c4nnn[nH]4)cccc32)c1Cl [Compound 44]
50 | -11.2% |  |  | Fc1cc(-c2nnn[nH]2)c2ccn(Cc3cccc(C(F)(F)F)c3Cl)c2c1 [Compound 50]
51 | -7.6% |  |  | NC(=O)c1cccc2c1ccn2Cc1cccc(C(F)(F)F)c1Cl [Compound 53]
52 | 11% |  |  | NC(=O)c1cccc2c1ccn2Cc1ccc(C(F)(F)F)c(Cl)c1 [Compound 54]
53 | 36% |  |  | NC(=O)c1c(F)ccc2c1ccn2Cc1cccc(C(F)(F)F)c1Cl [Compound 55]
